The values that follow come from BindingDB's records for patent US20240116892 (Ajax Therapeutics, Inc., 2024).

Molecules are shown by their SMILES. Where only a bound is given, the exact number is not on record here.

Tyrosine-protein kinase JAK2 [Y1007F,Y1008F], sequence (O60674 whole entry Y1007F/Y1008F, the tested form may be a part): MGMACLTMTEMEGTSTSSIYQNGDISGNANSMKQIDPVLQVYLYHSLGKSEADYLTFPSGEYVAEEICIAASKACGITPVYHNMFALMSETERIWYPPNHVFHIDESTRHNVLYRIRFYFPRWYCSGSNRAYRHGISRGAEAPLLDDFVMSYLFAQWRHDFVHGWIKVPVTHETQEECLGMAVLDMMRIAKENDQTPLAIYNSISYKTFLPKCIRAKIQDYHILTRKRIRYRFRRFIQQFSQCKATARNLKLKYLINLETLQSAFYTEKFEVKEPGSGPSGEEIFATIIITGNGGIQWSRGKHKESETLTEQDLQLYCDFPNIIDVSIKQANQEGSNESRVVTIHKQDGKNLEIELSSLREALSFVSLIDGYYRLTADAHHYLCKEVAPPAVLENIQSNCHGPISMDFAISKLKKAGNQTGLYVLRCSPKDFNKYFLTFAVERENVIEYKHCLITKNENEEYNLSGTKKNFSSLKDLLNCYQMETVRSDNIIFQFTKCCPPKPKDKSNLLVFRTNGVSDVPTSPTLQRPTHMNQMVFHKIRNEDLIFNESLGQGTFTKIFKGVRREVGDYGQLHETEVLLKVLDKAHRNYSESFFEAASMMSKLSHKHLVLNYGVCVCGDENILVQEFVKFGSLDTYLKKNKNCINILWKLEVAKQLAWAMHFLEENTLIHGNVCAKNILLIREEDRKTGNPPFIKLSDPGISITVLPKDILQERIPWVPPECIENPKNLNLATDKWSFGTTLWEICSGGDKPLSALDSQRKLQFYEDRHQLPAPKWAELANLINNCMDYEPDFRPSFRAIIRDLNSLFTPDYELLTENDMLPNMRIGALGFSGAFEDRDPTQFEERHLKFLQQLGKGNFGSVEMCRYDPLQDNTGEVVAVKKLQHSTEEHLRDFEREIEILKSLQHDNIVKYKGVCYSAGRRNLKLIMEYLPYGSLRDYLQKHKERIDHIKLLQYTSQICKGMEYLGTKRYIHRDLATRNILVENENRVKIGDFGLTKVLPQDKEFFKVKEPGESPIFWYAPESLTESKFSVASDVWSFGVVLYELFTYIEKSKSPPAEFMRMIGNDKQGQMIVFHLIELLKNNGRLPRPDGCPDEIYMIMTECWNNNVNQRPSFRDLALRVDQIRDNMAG

The target in this assay is Tyrosine-protein kinase JAK2 [Y1007F,Y1008F] (Homo sapiens, UniProt O60674, Y1007F/Y1008F). Description: JAK2 Binding Assay. The procedure:
JAK2 (JH1 domain-catalytic, Y1007F, Y1008F) kinase was expressed as N-terminal fusion to the DNA binding domain of NFkB in transiently transfected HEK293 cells and subsequently tagged with DNA for qPCR detection. Streptavidin-coated magnetic beads were treated with biotinylated small molecule ligands for 30 minutes at room temperature to generate affinity resins for kinase assays. The liganded beads were blocked with excess biotin and washed with blocking buffer (SeaBlock (Pierce), 1% BSA, 0.05% Tween 20, 1 mmol/L DTT) to remove unbound ligand and to reduce nonspecific phage binding. Binding reactions were assembled by combining kinases, liganded affinity beads, and test compounds in 1× binding buffer (1× PBS, 0.05% Tween 20, 0.1% BSA, 1 mmol/L DTT). Test compound was prepared as 111× stocks in 100% DMSO and directly diluted into the assay wells. All reactions were performed in polypropylene 384-well plates in a final volume of 0.02 mL. The assay plates were incubated at room temperature with shaking for 1 hour and the affinity beads were washed with wash buffer (1× PBS, 0.05% Tween 20). The beads were then re-suspended in elution buffer (1× PBS, 0.05% Tween 20, 0.5 μmol/L non-biotinylated affinity ligand) and incubated at room temperature with shaking for 30 minutes. The kinase concentration in the eluate was measured by qPCR.
For the compound `CN(C(=O)Nc1cc(C(F)(F)F)cn(C)c1=O)C12CC(c3cnc4[nH]ccc4c3)(C1)C2` [US20240116892, Compound I-121], the Kd was less than 10 nM.

Regarding `Cn1cc(C(F)(F)F)cc(NC(=O)N2CCO[C@@H]3CN(c4cnc(NC(=O)C5CC5)cn4)CC[C@H]32)c1=O` [US20240116892, Compound I-148-b], the Kd was less than 10 nM.

Regarding `CN(C(=O)Nc1cc(C(F)(F)F)cn(C)c1=O)[C@@H]1CCN(c2cnc3[nH]ncc3c2)C[C@@H]1F` [US20240116892, Compound I-62-b], the dissociation constant (Kd) is less than 10 nM.

By Kd is commonly meant the free concentration of one partner at which half of the binding sites on the other are occupied at equilibrium, for simple one-to-one binding. A higher Kd goes with weaker binding.
